Patent US11254663B2 (BRISTOL-MYERS SQUIBB COMPANY, priority 2019, dated 2022)

These compounds were tested against FXR (Homo sapiens (Human), UniProt Q96RI1) (assay: FXR EC50 (FXR agonist potency reported with each Example)).
Format: cell-based

Chain of FXR (Q96RI1 262-486): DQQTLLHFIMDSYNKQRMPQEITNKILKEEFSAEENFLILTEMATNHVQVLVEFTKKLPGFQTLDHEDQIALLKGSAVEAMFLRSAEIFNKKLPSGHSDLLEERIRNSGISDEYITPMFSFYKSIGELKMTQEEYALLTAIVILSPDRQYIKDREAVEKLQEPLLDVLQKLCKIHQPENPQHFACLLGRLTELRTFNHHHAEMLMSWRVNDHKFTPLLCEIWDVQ

| SMILES | EC50 [nM] |
| --- | --- |
| Cc1noc(-c2cccc(N(CC34CCC(c5ccc(C6CC6)cc5)(CC3)CC4)C(=O)C(C)C)c2)n1 [Example 1, N-((4-(4-cyclopropylphenyl)bicyclo[2.2.2]octan-1-yl)methyl)-N-(3-(3-methyl-1,2,4-oxadiazol-5-yl)phenyl)isobutyramide] | 1830 |
| Cc1noc(-c2cccc(N(CC34CCC(c5ccc(C6CC6)cc5)(CC3)CC4)C(=O)C3CC3)c2)n1 [Example 2, N-((4-(4-cyclopropylphenyl)bicyclo[2.2.2]octan-1-yl)methyl)-N-(3-(3-methyl-1,2,4-oxadiazol-5-yl)phenyl)cyclopropanecarboxamide] | 3060 |
| CCc1noc(-c2cccc(N(CC34CCC(c5nc(C)no5)(CC3)CC4)C(=O)C34CC(F)(C3)C4)c2)n1 [Example 3, N-(3-(3-ethyl-1,2,4-oxadiazol-5-yl)phenyl)-3-fluoro-N-((4-(3-methyl-1,2,4-oxadiazol-5-yl)bicyclo[2.2.2]octan-1-yl)methyl)bicyclo[1.1.1]pentane-1-carboxamide] | 346 |
| CCc1noc(-c2cccc(N(CC34CCC(c5nc(C6CC6)no5)(CC3)CC4)C(=O)C3CC(C(F)F)C3)c2)n1 (stereo not shown) [Example 4, N-((4-(3-cyclopropyl-1,2,4-oxadiazol-5-yl)bicyclo[2.2.2]octan-1-yl)methyl)-3-(difluoromethyl)-N-(3-(3-ethyl-1,2,4-oxadiazol-5-yl)phenyl)cyclobutane-1-carboxamide] | 322 |
| CCc1noc(-c2cccc(N(CC34CCC(c5nc(C6CC6)no5)(CC3)CC4)C(=O)[C@H]3C[C@](O)(C(F)(F)F)C3)c2)n1 [Example 5, (1s, 3s)-N-((4-(3-cyclopropyl-1,2,4-oxadiazol-5-yl)bicyclo[2.2.2]octan-1-yl)methyl)-N-(3-(3-ethyl-1,2,4-oxadiazol-5-yl)phenyl)-3-hydroxy-3-(trifluoromethyl)cyclobutane-1-carboxamide] | 182 |
| CCc1noc(-c2cccc(N(CC34CCC(c5nc(C6CC6)no5)(CC3)CC4)C(=O)C34CC(F)(C3)C4)c2)n1 [Example 6, N-((4-(3-cyclopropyl-1,2,4-oxadiazol-5-yl)bicyclo[2.2.2]octan-1-yl)methyl)-N-(3-(3-ethyl-1,2,4-oxadiazol-5-yl)phenyl)-3-fluorobicyclo[1.1.1]pentane-1-carboxamide] | 135 |
| CCOc1ncc(-c2cccc(N(CC34CCC(c5nc(C6CC6)no5)(CC3)CC4)C(=O)C34CC(F)(C3)C4)c2)o1 [Example 7, N-((4-(3-cyclopropyl-1,2,4-oxadiazol-5-yl)bicyclo[2.2.2]octan-1-yl)methyl)-N-(3-(2-ethoxyoxazol-5-yl)phenyl)-3-fluorobicyclo[1.1.1]pentane-1-carboxamide] | 22 |
| O=C([C@H]1C[C@](O)(C(F)(F)F)C1)N(CC12CCC(c3nc(C4CC4)no3)(CC1)CC2)c1cccc(-c2nc(C3CC3)no2)c1 [Example 9, (1s, 3s)-N-((4-(3-cyclopropyl-1,2,4-oxadiazol-5-yl)bicyclo[2.2.2]octan-1-yl)methyl)-N-(3-(3-cyclopropyl-1,2,4-oxadiazol-5-yl)phenyl)-3-hydroxy-3-(trifluoromethyl)cyclobutane-1-carboxamide] | 153 |
| O=C(C1CCC(F)(F)C1)N(CC12CCC(c3nc(C4CC4)no3)(CC1)CC2)c1cccc(-c2nc(C3CC3)no2)c1 (stereo not shown) [Example 11, N-((4-(3-cyclopropyl-1,2,4-oxadiazol-5-yl)bicyclo[2.2.2]octan-1-yl)methyl)-N-(3-(3-cyclopropyl-1,2,4-oxadiazol-5-yl)phenyl)-3,3-difluorocyclopentane-1-carboxamide] | 282 |
| CCOC(=O)c1coc(-c2cccc(N(CC34CCC(c5nc(C)no5)(CC3)CC4)C(=O)C34CC(F)(C3)C4)c2)n1 [Example 12, Ethyl 2-(3-(3-fluoro-N-((4-(3-methyl-1,2,4-oxadiazol-5-yl)bicyclo[2.2.2]octan-1-yl)methyl)bicyclo[1.1.1]pentane-1-carboxamido)phenyl)oxazole-4-carboxylate] | 1710 |
| CCOC(=O)c1coc(-c2cccc(N(CC34CCC(c5nc(C6CC6)no5)(CC3)CC4)C(=O)C34CC(F)(C3)C4)c2)n1 [Example 13, Ethyl 2-(3-(N-((4-(3-cyclopropyl-1,2,4-oxadiazol-5-yl)bicyclo[2.2.2]octan-1-yl)methyl)-3-fluorobicyclo[1.1.1]pentane-1-carboxamido)phenyl)oxazole-4-carboxylate] | 512 |
| O=C(N(CC12CCC(c3nc(C4CC4)no3)(CC1)CC2)c1cccc(-c2nc(CCl)co2)c1)C12CC(F)(C1)C2 [Example 14, N-(3-(4-(chloromethyl)oxazol-2-yl)phenyl)-N-((4-(3-cyclopropyl-1,2,4-oxadiazol-5-yl)bicyclo[2.2.2]octan-1-yl)methyl)-3-fluorobicyclo[1.1.1]pentane-1-carboxamide] | 166 |
| CC(C)(O)c1coc(-c2cccc(N(CC34CCC(c5nc(C6CC6)no5)(CC3)CC4)C(=O)C34CC(F)(C3)C4)c2)n1 [Example 15, N-((4-(3-cyclopropyl-1,2,4-oxadiazol-5-yl)bicyclo[2.2.2]octan-1-yl)methyl)-3-fluoro-N-(3-(4-(2-hydroxypropan-2-yl)oxazol-2-yl)phenyl)bicyclo[1.1.1]pentane-1-carboxamide] | 88 |
| CC(C)(O)c1coc(-c2cccc(N(CC34CCC(c5nc(C6CC6)no5)(CC3)CC4)C(=O)C3CC(F)(F)C3)c2)n1 [Example 16, N-((4-(3-cyclopropyl-1,2,4-oxadiazol-5-yl)bicyclo[2.2.2]octan-1-yl)methyl)-3,3-difluoro-N-(3-(4-(2-hydroxypropan-2-yl)oxazol-2-yl)phenyl)cyclobutane-1-carboxamide] | 318 |
| CC(C)(O)c1coc(-c2cccc(N(CC34CCC(c5nc(C6CC6)no5)(CC3)CC4)C(=O)C3CC(C(F)F)C3)c2)n1 (stereo not shown) [Example 17, N-((4-(3-cyclopropyl-1,2,4-oxadiazol-5-yl)bicyclo[2.2.2]octan-1-yl)methyl)-3-(difluoromethyl)-N-(3-(4-(2-hydroxypropan-2-yl)oxazol-2-yl)phenyl)cyclobutane-1-carboxamide] | 309 |
| CC(C)(O)c1coc(-c2cccc(N(CC34CCC(c5nc(C6CC6)no5)(CC3)CC4)C(=O)C3CCC(F)(F)C3)c2)n1 (stereo not shown) [Example 18, N-((4-(3-cyclopropyl-1,2,4-oxadiazol-5-yl)bicyclo[2.2.2]octan-1-yl)methyl)-3,3-difluoro-N-(3-(4-(2-hydroxypropan-2-yl)oxazol-2-yl)phenyl)cyclopentane-1-carboxamide] | 154 |
| O=C(C1CCC1)N(CC12CCC(c3nc(C4CC4)no3)(CC1)CC2)c1cccc(-c2cnc(C3CC3)o2)c1 [Example 20, N-((4-(3-cyclopropyl-1,2,4-oxadiazol-5-yl)bicyclo[2.2.2]octan-1-yl)methyl)-N-(3-(2-cyclopropyloxazol-5-yl)phenyl)cyclobutanecarboxamide] | 138 |
| O=C(C1CC(O)(C(F)(F)F)C1)N(CC12CCC(c3nc(C4CC4)no3)(CC1)CC2)c1cccc(-c2cnc(C3CC3)o2)c1 [Example 21, (1S,3S)—N-((4-(3-cyclopropyl-1,2,4-oxadiazol-5-yl)bicyclo[2.2.2]octan-1-yl)methyl)-N-(3-(2-cyclopropyloxazol-5-yl)phenyl)-3-hydroxy-3-(trifluoromethyl)cyclobutane-1-carboxamide] | 80 |
| O=C(C1CC(F)(F)C1)N(CC12CCC(c3nc(C4CC4)no3)(CC1)CC2)c1cccc(-c2cnc(C3CC3)o2)c1 [Example 22, N-((4-(3-cyclopropyl-1,2,4-oxadiazol-5-yl)bicyclo[2.2.2]octan-1-yl)methyl)-N-(3-(2-cyclopropyloxazol-5-yl)phenyl)-3,3-difluorocyclobutane-1-carboxamide] | 133 |
| O=C(N(CC12CCC(c3nc(C4CC4)no3)(CC1)CC2)c1cccc(-c2cnc(C3CC3)o2)c1)C12CC(F)(C1)C2 [Example 23, N-((4-(3-cyclopropyl-1,2,4-oxadiazol-5-yl)bicyclo[2.2.2]octan-1-yl)methyl)-N-(3-(2-cyclopropyloxazol-5-yl)phenyl)-3-fluorobicyclo[1.1.1]pentane-1-carboxamide] | 72 |
| O=C(C1CC(C(F)F)C1)N(CC12CCC(c3nc(C4CC4)no3)(CC1)CC2)c1cccc(-c2cnc(C3CC3)o2)c1 (stereo not shown) [Example 24, N-((4-(3-cyclopropyl-1,2,4-oxadiazol-5-yl)bicyclo[2.2.2]octan-1-yl)methyl)-N-(3-(2-cyclopropyloxazol-5-yl)phenyl)-3-(difluoromethyl)cyclobutane-1-carboxamide] | 281 |
| CCOc1cc(-c2cccc(N(CC34CCC(c5nc(C6CC6)no5)(CC3)CC4)C(=O)C34CC(F)(C3)C4)c2)no1 [Example 25, N-((4-(3-cyclopropyl-1,2,4-oxadiazol-5-yl)bicyclo[2.2.2]octan-1-yl)methyl)-N-(3-(5-ethoxyisoxazol-3-yl)phenyl)-3-fluorobicyclo[1.1.1]pentane-1-carboxamide] | 87 |
| CCCc1ncc(-c2cccc(N(CC34CCC(c5nc(C6CC6)no5)(CC3)CC4)C(=O)C34CC(F)(C3)C4)c2)o1 [Example 26, N-((4-(3-cyclopropyl-1,2,4-oxadiazol-5-yl)bicyclo[2.2.2]octan-1-yl)methyl)-3-fluoro-N-(3-(2-propyloxazol-5-yl)phenyl)bicyclo[1.1.1]pentane-1-carboxamide] | 72 |
| CCCc1ncc(-c2cccc(N(CC34CCC(c5nc(C6CC6)no5)(CC3)CC4)C(=O)C3CC(F)(F)C3)c2)o1 [Example 27, N-((4-(3-cyclopropyl-1,2,4-oxadiazol-5-yl)bicyclo[2.2.2]octan-1-yl)methyl)-3,3-difluoro-N-(3-(2-propyloxazol-5-yl)phenyl)cyclobutane-1-carboxamide] | 148 |
| CCCc1ncc(-c2cccc(N(CC34CCC(c5nc(C6CC6)no5)(CC3)CC4)C(=O)C3CC(C(F)F)C3)c2)o1 (stereo not shown) [Example 28, N-((4-(3-cyclopropyl-1,2,4-oxadiazol-5-yl)bicyclo[2.2.2]octan-1-yl)methyl)-3-(difluoromethyl)-N-(3-(2-propyloxazol-5-yl)phenyl)cyclobutane-1-carboxamide] | 248 |
